Data reported in article PMC9226319, “Peripherally restricted transthyretin-based delivery system for probes and therapeutics avoiding opioid-related side effects” (Nature Communications, 2022).
Values joined by “and” are separate entries in the source; they are usually repeats but may differ in a detail not shown here. Equal entries are not always repeated. Where two headings read alike, the source gives them in different places.

Experiments:
in vivo [1] = conditions: male, Sprague Dawley, rat, sc
[2] = target: T1, delta-opioid receptor (human) (Homo sapiens, UniProt P41143); test: Human delta-opioid receptor (agonist radioligand [3H]-DADLE) binding assay; conditions: for % Inhibition of Control Specific Binding: delta-opioid receptor binding, replicates 1st/2nd
T1 construct: Eurofins Cerep (France)
T1 sequence (P41143 whole entry): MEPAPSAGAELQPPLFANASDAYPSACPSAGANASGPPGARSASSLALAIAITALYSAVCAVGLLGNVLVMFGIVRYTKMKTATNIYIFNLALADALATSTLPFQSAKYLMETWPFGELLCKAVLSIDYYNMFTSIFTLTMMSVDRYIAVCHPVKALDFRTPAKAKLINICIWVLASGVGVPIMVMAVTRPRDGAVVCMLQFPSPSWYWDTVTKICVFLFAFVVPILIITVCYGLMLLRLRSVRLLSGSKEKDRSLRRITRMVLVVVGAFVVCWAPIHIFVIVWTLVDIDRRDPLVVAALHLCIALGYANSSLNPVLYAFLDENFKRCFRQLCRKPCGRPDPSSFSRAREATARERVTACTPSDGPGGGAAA

purified human TTR = purified human TTR (Homo sapiens, UniProt P02766); test: Fluorescence polarization (FP) binding assay, ligands to TTR in buffer
[3] = rat; for plasma concentration: SC 16 µmol/kg, individual animals
[4] = target: human mu-opioid receptors (Homo sapiens, UniProt P35372); test: biochemical; format: binding
Chain of human mu-opioid receptors (P35372 whole entry): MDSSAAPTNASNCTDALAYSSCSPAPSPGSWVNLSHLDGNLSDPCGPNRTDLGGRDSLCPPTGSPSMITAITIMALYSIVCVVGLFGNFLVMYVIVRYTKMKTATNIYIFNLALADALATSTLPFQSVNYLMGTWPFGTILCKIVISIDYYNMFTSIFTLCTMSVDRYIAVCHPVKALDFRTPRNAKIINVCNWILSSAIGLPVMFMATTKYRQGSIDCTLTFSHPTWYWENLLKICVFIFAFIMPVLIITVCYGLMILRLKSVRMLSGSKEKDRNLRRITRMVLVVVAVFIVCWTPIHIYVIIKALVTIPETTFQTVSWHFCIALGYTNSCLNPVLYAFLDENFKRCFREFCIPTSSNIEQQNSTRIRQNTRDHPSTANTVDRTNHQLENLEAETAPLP

TTR in human serum = TTR in human serum (Homo sapiens, UniProt P02766); test: TTR serum fluorescent probe exclusion (FPE) selectivity assay; format: binding; conditions: ligand 10 µM; for %FPE probe fluorescence: human serum, replicates
holo-RBP-TTR interaction = holo-RBP-TTR interaction (Homo sapiens, UniProt P02766); test: Effect on holo-RBP-TTR interaction in human serum (cross-linking, Western blot)
in vivo [5] = conditions: male, Sprague Dawley, rat, iv
[6] = Serum stability assay of AG10-L2-Nal, human serum; format: in vitro ADME; conditions: 100 µM
Description: AG10-L2-Nal (100 μM) was incubated in sera, and the concentration remaining in respective media was determined at 0 and 48 h using HPLC. Bar graphs represent the mean of % compound remaining ± s.d. […] The plasma, brain tissue, and CSF were collected at 30 min after dosing. The ratio of the brain (ng/g) versus plasma concentration (ng/mL) is expressed as the percentage brain to plasma ratio. The ratio of the CSF (ng/mL) versus plasma concentration (ng/mL) is expressed as the percentage CSF to plasma ratio. Bar graphs show the respective mean (±s.d.) (n = 3 for each group). […] The concentration of the test compounds in plasma was determined at different time points and expressed as means ± s.d. of three biological replicates. Source data are provided as a Source Data file. […]
(Taiwan). The experimental procedure was performed as reported12. […]
Serum stability assay of AG10-L2-Nal. […] 100 μL samples were analyzed at 0 h, 24 h, and 48 h time intervals. […] The supernatant was analyzed using Waters™ XBridge C18 column (4.6x250 mm, 5μm) on Waters e2695 separations module HPLC system connected to a Waters 2998 photodiode array detector operating between the UV ranges of 200-400 nm. […]

C=CCN1CC[C@]23c4c5ccc(O)c4O[C@H]2[C@@H](OCc2cn(CCNCCCCCCOc4cc(OCCCc6c(C)n[nH]c6C)cc(C(=O)O)c4)nn2)CC[C@@]3(O)[C@H]1C5 [AG10-L2-Nal]
AUC(0-inf) (in vivo [1]; 16 umol/kg): 17.6 ± 2.54 µM·h | CL/F (in vivo [1]; 16 umol/kg): 15.3 mL/min/kg | Vd/F (in vivo [1]; 16 umol/kg): 4.89 ± 1.83 L/kg | half-life (in vivo [1]; 16 umol/kg): 3.62 ± 0.76 h | concentration at 0.25 h (in vivo [1]; 16 µmol/kg, plasma concentration, SC 16 µmol/kg, 0.25 h, individual animals): 7560 nM | concentration at 0.5 h (in vivo [1]; 16 µmol/kg, plasma concentration, SC 16 µmol/kg, 0.5 h, individual animals): 4680 nM | concentration at 0.75 h (in vivo [1]; 16 µmol/kg, plasma concentration, SC 16 µmol/kg, 0.75 h, individual animals): 4580 nM | concentration at 1 h (in vivo [1]; 16 µmol/kg, plasma concentration, SC 16 µmol/kg, 1 h, individual animals): 4240 nM | concentration at 2 h (in vivo [1]; 16 µmol/kg, plasma concentration, SC 16 µmol/kg, 2 h, individual animals): 2370 nM | concentration at 4 h (in vivo [1]; 16 µmol/kg, plasma concentration, SC 16 µmol/kg, 4 h, individual animals): 1470 nM | concentration at 6 h (in vivo [1]; 16 µmol/kg, plasma concentration, SC 16 µmol/kg, 6 h, individual animals): 1050 nM | concentration at 8 h (in vivo [1]; 16 µmol/kg, plasma concentration, SC 16 µmol/kg, 8 h, individual animals): 727 nM | concentration at 24 h (in vivo [1]; 16 µmol/kg, plasma concentration, SC 16 µmol/kg, 24 h, individual animals): 40.6 nM | Ki ([2]; [3H]-DADLE displacement, read-out: binding affinity to delta-opioid receptor (Ki)): 5.5 nM | % Inhibition of Control Specific Binding ([2]; 1.0E-07 M): 91.6% and 94.2% | % Inhibition of Control Specific Binding ([2]; 1.0E-08 M): 53.9% and 52.4% | % Inhibition of Control Specific Binding ([2]; 1.0E-09 M): 14.6% and 12.2% | % Inhibition of Control Specific Binding ([2]; 1.0E-10 M): 2.7% and 9.1% | % Inhibition of Control Specific Binding ([2]; 5.0E-08 M): 83.7% and 87.4% | Kd (purified human TTR): 333 nM | % Fluorescence polarization (mean) (purified human TTR; log [nM] inhibitor 0.990): 100.000% | % Fluorescence polarization (mean) (purified human TTR; log [nM] inhibitor 1.291): 106.646% | % Fluorescence polarization (mean) (purified human TTR; log [nM] inhibitor 1.592): 105.531% | % Fluorescence polarization (mean) (purified human TTR; log [nM] inhibitor 1.893): 103.770% | % Fluorescence polarization (mean) (purified human TTR; log [nM] inhibitor 2.194): 97.021% | % Fluorescence polarization (mean) (purified human TTR; log [nM] inhibitor 2.495): 90.708% | % Fluorescence polarization (mean) (purified human TTR; log [nM] inhibitor 2.796): 79.479% | % Fluorescence polarization (mean) (purified human TTR; log [nM] inhibitor 3.097): 54.083% | % Fluorescence polarization (mean) (purified human TTR; log [nM] inhibitor 3.398): 38.835% | % Fluorescence polarization (mean) (purified human TTR; log [nM] inhibitor 3.699): 31.550% | % Fluorescence polarization (mean) (purified human TTR; log [nM] inhibitor 4.000): 21.649% | % Fluorescence polarization (mean) (purified human TTR; log [nM] inhibitor […]): 0.000% | plasma concentration ([3]; 0.03 h): 1290 nM and 1240 nM and 552 nM | plasma concentration ([3]; 0.25 h): 5340 nM and 6840 nM | plasma concentration ([3]; 0.5 h): 3960 nM and 4020 nM | plasma concentration ([3]; 0.75 h): 3620 nM and 2900 nM | plasma concentration ([3]; 1 h): 3480 nM and 3260 nM | plasma concentration ([3]; 2 h): 1350 nM and 1760 nM | plasma concentration ([3]; 4 h): 1120 nM and 1540 nM | plasma concentration ([3]; 6 h): 623 nM and 938 nM | plasma concentration ([3]; 8 h): 699 nM and 1120 nM | plasma concentration ([3]; 12 h): 166 nM and 200 nM and 516 nM | plasma concentration ([3]; 24 h): 49.7 nM and 31.1 nM | k ([3]; single SC dose 16 µmol/kg): 0.20 ± 0.04 h⁻¹ | % Inhibition of Control Specific Binding [4]: 88.5% | fold better mu-opioid receptor binding affinity than MNTX [4]: 17 fold | fold higher mu-opioid receptor binding affinity than AG10-L1-Nal [4]: 5.7 fold | Ki ([4]; binding affinity to mu-opioid receptor (Ki)): 0.35 nM | Ki ([4]; binding affinity to mu-opioid receptor (Ki) in the presence of TTR): 1.3 nM | % TTR occupancy in human serum (TTR in human serum; FPE probe 3.6 µM, 3 h reading relative to probe alone, text mean ± s.d., table replicates): 62.5 ± 1.1% and 62.04% and 62.07% and 64.05% and 61.92% | %FPE probe fluorescence (TTR in human serum; time 0.000 h): 0.000% | %FPE probe fluorescence (TTR in human serum; time 0.083 h): 0.018% and 0.756% and -2.232% and -2.399% | %FPE probe fluorescence (TTR in human serum; time 0.250 h): -1.158% and 2.209% and 1.458% and -0.885% | %FPE probe fluorescence (TTR in human serum; time 0.500 h): 4.241% and 3.528% and 5.089% and 2.218% | %FPE probe fluorescence (TTR in human serum; time 1.000 h): 6.503% and 10.611% and 13.590% and 14.148% | %FPE probe fluorescence (TTR in human serum; time 1.250 h): 9.009% and 13.005% and 15.989% and 16.127% | %FPE probe fluorescence (TTR in human serum; time 1.500 h): 13.314% and 18.863% and 18.262% and 17.288% | %FPE probe fluorescence (TTR in human serum; time 1.750 h): 17.598% and 21.285% and 22.377% and 21.648% | %FPE probe fluorescence (TTR in human serum; time 2.000 h): 21.919% and 25.680% and 23.861% and 25.075% | %FPE probe fluorescence (TTR in human serum; time 2.250 h): 26.163% and 28.876% and 26.928% and 27.418% | %FPE probe fluorescence (TTR in human serum; time 2.500 h): 26.877% and 32.466% and 29.919% and 30.633% | %FPE probe fluorescence (TTR in human serum; time 2.750 h): 34.129% and 34.947% and 31.920% and 33.937% | %FPE probe fluorescence (TTR in human serum; time 3.000 h): 37.964% and 37.926% and 35.954% and 38.083% | %FPE probe fluorescence (TTR in human serum; time 3.500 h): 44.335% and 44.718% and 41.995% and 45.800% | %FPE probe fluorescence (TTR in human serum; time 3.750 h): 47.041% and 46.124% and 44.395% and 46.344% | %FPE probe fluorescence (TTR in human serum; time 4.000 h): 49.775% and 49.574% and 47.863% and 50.648% | %FPE probe fluorescence (TTR in human serum; time 4.250 h): 49.252% and 50.428% and 49.751% and 51.967% | %FPE probe fluorescence (TTR in human serum; time 4.500 h): 53.631% and 53.865% and 52.939% and 52.730% | %FPE probe fluorescence (TTR in human serum; time 4.750 h): 56.220% and 54.908% and 55.174% and 55.874% | %FPE probe fluorescence (TTR in human serum; time 5.000 h): 57.139% and 56.055% and 53.820% and 57.315% | %FPE probe fluorescence (TTR in human serum; time 5.250 h): 59.200% and 60.014% and 56.004% and 59.143% | %FPE probe fluorescence (TTR in human serum; time 5.500 h): 60.336% and 59.246% and 59.233% and 60.795% | %FPE probe fluorescence (TTR in human serum; time 5.750 h): 61.971% and 60.994% and 58.022% and 62.173% | %FPE probe fluorescence (TTR in human serum; time 6.000 h): 64.344% and 63.419% and 61.650% and 63.934% | interference with holo-RBP binding to TTR (holo-RBP-TTR interaction; 20 µM in human serum, 2 h 37 °C): does not interfere with | %holo RBP binding to TTR (holo-RBP-TTR interaction; human serum, quantified from gel image, replicates (Supp Fig.14b)): 7% and 8.1% and 7.9% | AUC(0-inf) (in vivo [5]; 4.84 umol/kg): 16.9 ± 1.09 µM·h | Vd (in vivo [5]; 4.84 umol/kg): 0.12 ± 0.02 L/kg | clearance (in vivo [5]; 4.84 umol/kg): 4.83 mL/min/kg | half-life (in vivo [5]; 4.84 umol/kg): 5.98 ± 0.81 h | concentration at 0.03 h (in vivo [5]; 4.84 µmol/kg, plasma concentration, IV 4.84 µmol/kg, 0.03 h, individual animals): 48800 nM | concentration at 1 h (in vivo [5]; 4.84 µmol/kg, plasma concentration, IV 4.84 µmol/kg, 1 h, individual animals): 295 nM | concentration at 2 h (in vivo [5]; 4.84 µmol/kg, plasma concentration, IV 4.84 µmol/kg, 2 h, individual animals): 234 nM | concentration at 12 h (in vivo [5]; 4.84 µmol/kg, plasma concentration, IV 4.84 µmol/kg, 12 h, individual animals): 9.6 nM | % compound remaining in human serum ([6]; 0 h, replicates): 101.76% and 98.77% and 99.47% | % compound remaining in human serum ([6]; 37 °C, 48 h, table replicates): 100% and 100.03% and 100.96% and 96.87%
